According to article PMC4633953, “FR171456 is a specific inhibitor of mammalian NSDHL and yeast Erg26p” (Nature Communications, 2015):
Several values for one entry are separate records, joined by “and”; a condition that tells them apart may be missing. Equal values may be shown once. Entries after “also recorded” stand apart in the source; their conditions may differ.

What was measured:
[1] = test system: erg26Δ haploid yeast expressing mutant ERG26 alleles; assay: Growth dose response of erg26Δ haploid yeast expressing mutant ERG26 alleles; format: cell-based, S. cerevisiae; conditions: seven mutant ERG26 alleles, rich liquid media
From the text: To confirm that the observed ERG26 mutations are dominant and sufficient to confer FR171456 resistance, but retain the essential function of Erg26p, we assessed the growth of erg26Δ haploid yeast expressing wild-type ERG26 or one of seven mutant alleles inserted at another locus in rich liquid media. […] It was not possible to generate a haploid strain carrying a single copy of ERG26 encoding the Gly90Ser mutation after multiple attempts. Thus seven of the eight mutations within the coding region of ERG26 are both dominant for FR171456 resistance and retain sufficient enzymatic function to support life. This additional genetic data set confirms that Erg26p is the target of FR171456.
For EMS mutagenesis experiments, 1 × 10^8 cells were plated on one standard YPD agar plate containing 50 μM FR171456 in 2% DMSO v/v following a standard EMS mutagenesis protocol. After 2 days incubation at 30 °C 48 representative colonies were picked and retested in an overnight liquid assay for growth in YPD with or without 50 μM FR171456 in 2% DMSO v/v. Genomic DNA was prepared from 42 resistant clones (+ one wild type) and for each the entire ERG26 gene was sequenced following PCR amplification with high-fidelity polymerase. […]

503 cancer cell lines = assay: Compound activity profile against 503 cancer cell lines (72 h, Cell TiterGlo); format: cell-based; conditions: sensitive = Amax <50% and IC50 <5 μM
Protocol: Supplementary figure 1. […] A plot […]
of normalized maximal inhibition (Y axis) versus the inflection point (X Axis) of a standard dose-response curve for increasing concentrations of FR171456 incubated with 503 mammalian cell lines in culture for 72h (each symbol), as determined by Cell TiterGlo (Promega)

[2] = test system: ergosterol pathway intermediates in C. albicans SC5314; assay: Focused metabolomics: 13C-labelled ergosterol pathway intermediates in C. albicans; format: cell-based; conditions: increasing doses
Protocol: For ^13C- labelling studies, the wild type C. albicans strain SC5314 was obtained from ATCC (Manassas, VA) and was cultured at 30 °C in YPD broth (1% yeast extract, 2% peptone, 2% dextrose) or Synthetic Medium (3% glycerol, 0.1% glucose, 65 mM NH4Cl, 1.7 mM NaCl, 7 mM KH2PO4, 1 mM CaCl2, 0.5 mM MgSO4).
Approximately 1.25 × 10^8 C. albicans cells from a saturated YPD culture were inoculated into 100 ml Synthetic Medium (SM) and grown at 30 °C to an OD of 1.0. Cells were washed once in modified SM (25 mM KPO4 pH 7.0, with glucose omitted) and suspended to 5 OD600 units per ml in modified SM.
Labelling reactions were performed in 12-ml glass tubes with PTFE-lined caps (Corning) and containing 1 ml cell suspension (∼6 × 10^7 cells), 10 μl DMSO or 10 μl compound dissolved in DMSO, 12 μl 1M D-Glucose (U^-13C6 glucose), and 10 μl 1 M (1,2^-13C2) sodium acetate (Cambridge Isotope Laboratories, Inc). Before LC-MS analysis, dried lipid extracts were dissolved in 500 μl methanol, vortexed and sonicated for 10 min.
Squalene, ergosterol, lanosterol and zymosterol were quantified using the tandem mass spectrometer API4000 triple quadrupole (AB Sciex) with atmospheric pressure chemical ionization (APCI), interfaced to an Agilent LC.
Cells (∼6 × 10^7) and compounds were preincubated 15 min at 30 °C (without shaking) before the addition of labelled substrates. Labelling was performed at 30 °C with shaking for 4 h. Reactions were stopped by adding 1 ml 30% KOH, 1 ml 100% ethanol, and 0.2 ml 2% pyrogallol. Samples were mixed and then heated at 80 °C for 30 min, then cooled to room temperature. Non-saponifiable lipids were extracted two times in petroleum ether, washed with water, dried under nitrogen gas and stored at −80 °C.
For compound calibration, 2 μM solutions in 0.1% formic acid were directly infused into the mass spectrometer. Ergosterol, lanosterol and zymosterol undergo dehydration and their molecular species are detected as [M+H-H2O]^+ while squalene is detected as [M+H]^+. Supplementary Table 4 lists the multiple reaction monitoring parameters of the sterols and squalene, as well as the ^13C incorporated metabolites. The mass spectrometer source parameters are the following: CUR=40, GS1=60, NC=4.5. TEM=450 CAD=4. A mobile phase of 0.2% formic acid in methanol and isocratic run at 0.4 ml min^−1 was employed to separate the metabolites on a Waters XBridge C18 3.5 μm 2.1 × 50 mm column. The run time was 4.5 min.

Candida krusei NF2902 = assay: Antifungal MIC; format: cell-based; conditions: Pichia kudriavzevii
Rhizopus oryzae NF4801 = assay: Antifungal MIC; format: cell-based; conditions: Rhizopus arrhizus
Candida glabrata NF2905 = assay: Antifungal MIC; format: cell-based; conditions: Nakaseomyces glabratus
[3] = test system: Candida tropicalis NF2903; assay: Antifungal MIC; format: cell-based
K562 = assay: Mammalian cell proliferation, K562; format: cell-based
[4] = test system: Saccharomyces cerevisiae NF3201; assay: Antifungal MIC; format: cell-based
R. oryzae = assay: Combination with clinical antifungal agents (Loewe synergy); format: cell-based; conditions: >1 is synergistic

C=C(CCC(C)C1CCC2C1(C)CC(O)C13CC14C(=O)CC(O)C(C)(C(=O)O)C4C(=O)CC23O)C(C)C [FR171456, (1R,2aR,3R,5aR,5bS,7aR,8S,9S,11aS,12aR)-1,5b,9-trihydroxy-2a,8-dimethyl-3-((R)-6-methyl-5-methyleneheptan-2-yl)-7,11-dioxohexadecahydrocyclopenta[a]cyclopropa[e]-phenanthrene-8-carboxylic acid]
change of growth IC50 compared with the isogenic control [1]: increase in the IC50
anti-proliferative activity across cell line panel (503 cancer cell lines): not anti-proliferative; also recorded: unaffected; also recorded: only five cell lines were sensitive
effect on 13C-labelled ergosterol [2]: dose-dependent reduction
effect on 13C-labelled lanosterol [2]: increase
effect on 13C-labelled zymosterol [2]: dose-dependent reduction
MIC (Candida krusei NF2902): 64 µg/mL and 144 µM
MIC (Rhizopus oryzae NF4801): 8 µg/mL and 18 µM
MIC (Candida glabrata NF2905): 16 µg/mL and 36 µM
MIC [3]: 72 µM and 32 µg/mL
concentration affecting proliferation (K562): 36 µM
MIC [4]: 8 µg/mL and 18 µM
Loewe synergy score (R. oryzae; combination with Amphotericin B): < 1
Loewe synergy score (R. oryzae; combination with posaconazole): < 1
